Earlier results in patent publication US8410117B2, “Imidazopyrimidine derivatives” (Hoffmann-La Roche Inc., priority 2010, dated 2013).

System: rats
Conditions: sub-chronic treatment with PCP; cited from earlier work

## COc1ccc(Cc2nccc3cc(OC)c(OC)cc23)cc1OC [papaverine, Papaverine]
  deficits in the extra-dimensional shift learning: attenuate the deficits in the extra-dimensional shift learning
